Tested on: neurons of the locus coeruleus (LC); mu opioid receptor-coupled K^+ channels
Format: cell-based, rat

Molecule	effect on residual Ba^2+-insensitive outward current	effect on responses to uncaging stimuli
Nc1ccncc1 [4-AP]	unable to block or occlude	–
CC1(C)[C@@H](OC(=O)CCC(=O)O)CC[C@]2(C)[C@H]3C(=O)C=C4[C@@H]5C[C@@](C)(C(=O)O)CC[C@]5(C)CC[C@@]4(C)[C@]3(C)CC[C@@H]12 [carbenoxolone]	–	not significantly attenuated
ZD7288	unable to block or occlude	–

— publication PMC3282187 (Neuron, 2012)
